# Experimental data: paper PMC4220977, “Enzyme–adenylate structure of a bacterial ATP-dependent DNA ligase with a minimized DNA-binding surface” (Acta Crystallographica Section D: Biological Crystallography, 2014)
# What was measured:
# [1] = biological target: T1, Psy-Lig (Psychromonas sp. SP041, UniProt A0ACD6BAT9); experiment: X-ray crystal structure, […] Å (SeMet protein); type: binding; conditions: covalent; phosphoamide bond to Lys25 side chain (mature numbering), enzyme-adenylate intermediate formed from ATP; active site
# T1 construct: mature protein, 40-residue periplasmic leader removed (cleavage Ala40/Gln41), 257 residues; N-terminal His tag and TEV site, vector pHMGWA, expressed in E. coli; pre-adenylated with ATP; SeMet form crystallised
# [2] = substrate: Nc1ncnc2c1ncn2[C@@H]1O[C@H](COP(=O)(O)OP(=O)(O)OP(=O)(O)O)[C@@H](O)[C@H]1O; experiment: molecular beacon fluorescence nick-sealing assay, Michaelis-Menten fit; type: biochemical, Psychromonas sp. SP041; conditions: 300 nM nicked ds-DNA beacon, 2.0 nM enzyme, 10 mM MgCl2, 100 mM NaCl, 1 mM DTT, 50 mM Tris pH 8.0, 30 °C, ATP 0-50 µM
molecule,measurement,setting,value
Nc1ncnc2c1ncn2[C@@H]1O[C@H](COP(=O)(O)O)[C@@H](O)[C@H]1O [AMP],"X-ray crystal structure, 1.65 Å (SeMet protein)",[1],"AMP bound in the active site was clear in the observed electron density, covalently linked"
"Psy-Lig (Psychromonas sp. SP041) (protein, mature protein, 40-residue periplasmic leader removed (cleavage Ala40/Gln41), 257 residues; N-terminal His tag and TEV site, vector pHMGWA, expressed in E. coli; pre-adenylated with ATP; SeMet form crystallised) QPPPIQLATNYRQDIDVTQYYVSEKLDGIRAYWNGHQLISKQGNIFTAPTWFIASFPTTAMDGELWIARQQFETVSGIARTQDNQNEQWKQIKFMIFDLPKSTVSFEQRINKMQTLVTDTNSPYLQMIEQQKIPNTVALFDLLNKVVMGKGEGLMLHHQDALYQTKRSRDLMKLKKFEDAEATVIAYLPGKGKYEGLLGAILVKNEEGVTFKIGSGFSDEERSTPPPIGSLITYRFTGKTNNNIPRFASFVRIRVIY",Km,[2],3.8 ± 0.7 µM
